Read-outs that look alike come from different tables or passages of the source.
How the values were obtained:
[1] = test system: intestinal passage of carbo adsorbens; assay: intestinal passage of carbo adsorbens, mice; format: in vivo; conditions: for intestinal passage of carbo adsorbens, complete intestine: atropin 5 mg/kg, reference 75.0 ± 1.9
Description: (§1) The active substance in 20 mg dose per one kg, if administered 30 minutes before administering castor oil, has extended the latent period up to the beginning of the diarrhea from 91.2±4.4 minutes to 127.3±6.3 minutes. […] (Table 1).
(§2) TABLE 1 - Influence of pharmaceutical substances on the intestinal passage of carbo adsorbens (100% is the complete intestine length): […]

rats = assay: one month toxicity study of rats; format: in vivo
in vivo [2] = conditions: mouse
in vivo [3] = conditions: rabbit
Salmonella typhimurium = assay: mutation tests and reparative tests, Salmonella typhimurium
mice [4] = conditions: mouse, in vivo
mice [5] = assay: teratological and embryotoxic experiments on mice
rat = conditions: in vivo
in vivo [6] = conditions: rat
in vivo [7] = conditions: guinea pig
[8] = cited from earlier work
mice [9] = assay: castor oil-provoked diarrhea in mice; format: in vivo; conditions: 20 mg/kg, 30 minutes before castor oil; control 91.2±4.4 minutes
mice [10] = conditions: mouse, in vivo; remark: listed apart in the source
[11] = test system: intestinal passage of carbo adsorbens; assay: intestinal passage of carbo adsorbens, rats; format: in vivo; conditions: for intestinal passage of carbo adsorbens, small intestines: 100% is the complete intestine length, substance 20 mg/kg, atropin 5 mg/kg, reference 58.7 ± 2.5
Description: as §1, §2

adenylate cyclase = conditions: Hynie et al 1986; cited from earlier work
dogs (beagle) = assay: chronic six months toxicity study on dogs; format: in vivo
[12] = retention of stomach content; format: in vivo; conditions: active substance 10-20 mg/kg; atropin dose not stated
calves = assay: reduction of diarrhea occurrence in new-born calves; format: in vivo
Description: With the referenoe individuals (n=66) diarrhea has occurred with about 80% thereof. The medicament of the invention, if administered for 2 to 3 days in a 10 mg daily dose, reduced the diarrhea ocourrence by 40-50%, and with a 20 mg d aily dose during 3 days of administration even less than 4% (P<0.01). In the control group of calves to which no medicament was administered, a multiple mortality has been observed.

[13] = V. Nosalova et al 1986; cited from earlier work
[14] = 100% is the complete intestine length, substance 20 mg/kg

CCCCCOc1cccc(NC(=O)O[C@@H]2CCCC[C@H]2N2CCCC2)c1 (relative stereo) [substance of the formula, (±)-trans-2(1-pyrrolidinyl) cyclohexylester of 3-(n)-pentyloxycarbanilic acid]
influence on passage of intestine content (in words) [1]: does not significantly influence the passage of intestine content
intestinal passage of carbo adsorbens, complete intestine [1, 14]: 80.3 ± 1.2%
intestinal passage of carbo adsorbens, small intestine ([1]; 100% is the complete intestine length, substance 20 mg/kg, reference 91.7 ± 2.2): 96.6 ± 0.95%
hematological, biochemical and morphological indices or animal weight (rats; p.o. 0.1, 1, 10 mg/kg): neither hematological, biochemical and morphological indices or the animal weight have not been considerably influenced
influence on behavior (rats; p.o. 0.1, 1, 10 mg/kg): has not shown any influence on the behavior of animals
increase in weight (rats; p.o., two highest doses): in some cases lower than average
LD50 (in vivo [2]; ip): 56 mg/kg
LD50 (in vivo [2]; iv): 10.3 mg/kg
LD50 (in vivo [2]; po): 790 mg/kg
LD50 (in vivo [2]; sc): 122 mg/kg
LD50 (in vivo [3]; ip): 46.5 mg/kg
LD50 (in vivo [3]; iv): 2.92 mg/kg
mutation changes in reparative tests (Salmonella typhimurium): have not been observed
qualitative or quantitative mutations (Salmonella typhimurium): have not been observed
occurrence of skeletal abnormalities (mice [4]): the same as in the reference group
fetal weight, implantates, placenta and amniotic liquor (mice [5]; 0.21, 2.1, 8.4, 21, 42, 84 mg/kg): no changes in the amounts of fetal weight implantates, placenta and amniotio liquor were found
fetuses with palate fissure (mice [5]; only at highest dose of 84 mg/kg): less than 10%
LD50 (rat; ip): 75 mg/kg
LD50 (rat; iv): 13.8 mg/kg
LD50 (rat; po): 1030 mg/kg
LD50 (rat; sc): 283 mg/kg
LD50 (in vivo [6]; ip): 70 mg/kg
LD50 (in vivo [6]; iv): 11.8 mg/kg
LD50 (in vivo [6]; po): 1110 mg/kg
LD50 (in vivo [6]; sc): 295 mg/kg
LD50 (in vivo [7]; iv): 7.8 mg/kg
LD50 (in vivo [7]; sc): 73.2 mg/kg
locally anaesthetic effect ([8]; L. Benes et al 1969): exhibits the well-known locally anaesthetic effects
locally anaesthetic and spasmolytic effects ([8]; P. Svec et al 1976): locally anaesthetic and spasmolytic effects
locally anaesthetic activity at decreased pH ([8]; media with decreased pH value at the acid side, S. Stole et al 1978): maintenance of its locally anaesthetic activity even in media with decreased pH value at the acid side
mutation changes in reparative tests (Escherichia coli): have not been observed
qualitative or quantitative mutations (Escherichia coli): have not been observed
latent period up to the beginning of the diarrhea (mice [9]): 127.3 ± 6.3 min
LD50 (mice [10]; ip): 59 mg/kg
LD50 (mice [10]; po): 840 mg/kg
LD50 (mice [10]; sc): 128 mg/kg
influence on passage of intestine content (in words) [11]: does not significantly influence the passage of intestine content
intestinal passage of carbo adsorbens, small intestines [11]: 60.1 ± 1.5%
reduction of adenylate cyclase activity (adenylate cyclase): a significant reduction of adenylate cyclase activity
changes in weight of dogs (dogs (beagle); both sexes, six months, p.o. 2, 10, 30 mg/kg): has not exhibited with doses of 2; 10; 30 mg/kg any extensive changes in the weight of dogs
harmfulness of the substance in the six months period (dogs (beagle); p.o., dose range up to 2 mg/kg): no proofs about any harmfulness of the substance
toxicity at the high doses (weight, behavior, mortality) (dogs (beagle); six months, p.o., two highest doses): a decrease in weight, defective behavior and mortality have occurred
toxic effect in hematological, biochemical and morphological indices (dogs (beagle); six months, p.o., two lower doses): No toxic effect in hematological, biochemical and morphological indices has been observed with the two lower doses
heart activity and psychomotoric changes (dogs (beagle); six months, p.o., two lower doses (exception)): minor changes in the heart activity, and particularly by influencing the pulse conductivity and further by psychomotoric unrest
retention of stomach content [12]: unchanged
mortality of untreated control calves compared with treated calves (in words) (calves; bovine, in vivo): a statistically considerably higher number perish
reduction of diarrhea occurrence (calves; calves, average 40 kg, 10 mg daily dose, 2 to 3 days, reference about 80% (n=66)): 40-50%
diarrhea occurrence (printed as: reduced ... even less than 4%) (calves; calves, average 40 kg, 20 mg daily dose, 3 days, P<0.01, reference about 80% (n=66)): less than 4%
reduction of diarrhea (in words) (calves; calves, 10 and 20 mg per diem, one to three days after birth): significant reduction of diarrhea with involved animals depending upon the dose applied
antiulcerose / gastric cytoprotective effect [13]: antiulcerose effects with a marked gastric cytoprotective effect

CN1C2CCC1CC(OC(=O)C(CO)c1ccccc1)C2 (stereo not shown) [atropin, reference compound]
intestinal passage of carbo adsorbens, complete intestine [1, 14]: 51.4 ± 2.6%
intestinal passage of carbo adsorbens, small intestines [11]: 46.3 ± 2.5%

Reference: patent US4975450A, “Antidiarrheal” (Slovenska Akademia Vied, priority 1987, dated 1990)
